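Five compound concentrations were applied to cells in 96-well plates for 48 hours; endpoints were derived by simple linear interpolation of the resulting dose-response curve. The concentration for 50% growth inhibition is given as GI50.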 Activity calls are given as the source filed them. No stated cut-off is given here; in the data, active = GI50 up to about 1.1 µM and inactive = higher.
Tests used:
Assay in all cases: inhibition of tumour cell growth, NCI panel, 48 h
[1] = test system: HCT-116
[2] = test system: OVCAR-3
[3] = test system: RPMI-8226
[4] = test system: 786-0
[5] = test system: NCI-H23
[6] = test system: Hs-578T
[7] = test system: OVCAR-5
[8] = test system: OVCAR-8
[9] = test system: EKVX
[10] = test system: M14
[11] = test system: SNB-19
[12] = test system: KM12
[13] = test system: SW-620
[14] = test system: SNB-75
[15] = test system: SK-OV-3
[16] = test system: OVCAR-4
[17] = test system: SK-MEL-2
[18] = test system: SF-268
[19] = test system: UACC-62
[20] = test system: IGROV-1
[21] = test system: BT-549
[22] = test system: DU-145
[23] = test system: CAKI-1
[24] = test system: HL-60
[25] = test system: HOP-92
[26] = test system: LOX IMVI
[27] = test system: MDA-MB-435
[28] = test system: UACC-257
[29] = test system: CCRF-CEM
[30] = test system: SF-539
[31] = test system: Malme-3M
[32] = test system: SK-MEL-28
[33] = test system: MCF7
[34] = test system: SN12C
[35] = test system: HT-29
[36] = test system: SR
[37] = test system: HOP-62
[38] = test system: A549
[39] = test system: SK-MEL-5
[40] = test system: SF-295
[41] = test system: NCI-H522
[42] = test system: MDA-N
[43] = test system: PC-3
[44] = test system: NCI/ADR-RES
[45] = test system: A498
[46] = test system: RXF 393
[47] = test system: T47D
[48] = test system: ACHN
[49] = test system: HCT-15
[50] = test system: UO-31
[51] = test system: COLO 205
[52] = test system: TK-10
[53] = test system: MOLT-4
[54] = test system: NCI-H226
[55] = test system: U-251
[56] = test system: K562
[57] = test system: NCI-H460
[58] = test system: HCC 2998

## COc1cc(S(=O)(=O)N/N=C/C=C/c2ccccc2)c(OC)cc1NC(C)=O
[1]
  GI50: 91.2 µM (inactive)
[2]
  GI50: 40.7 µM (inactive)
[3]
  GI50: 19.1 µM (inactive)
[4]
  GI50: 91.8 µM (inactive)
[5]
  GI50: 41.8 µM (inactive)
[6]
  GI50: 26.4 µM (inactive)
[7]
  GI50: 38.6 µM (inactive)
[8]
  GI50: 12.2 µM (inactive)
[9]
  GI50: 5.14 µM (inactive)
[10]
  GI50: 21.9 µM (inactive)
[11]
  GI50: > 100 µM (inactive)
[12]
  GI50: 42.3 µM (inactive)
[13]
  GI50: 25.4 µM (inactive)
[14]
  GI50: > 100 µM (inactive)
[15]
  GI50: > 100 µM (inactive)
[16]
  GI50: 19.6 µM (inactive)
[17]
  GI50: 47 µM (inactive)
[18]
  GI50: 35.4 µM (inactive)
[19]
  GI50: 86.9 µM (inactive)
[20]
  GI50: 17.8 µM (inactive)
[21]
  GI50: 42.1 µM (inactive)
[22]
  GI50: 31.8 µM (inactive)
[23]
  GI50: 16 µM (inactive)
[24]
  GI50: 33 µM (inactive)
[25]
  GI50: 30.3 µM (inactive)
[26]
  GI50: 15.5 µM (inactive)
[27]
  GI50: 38.8 µM (inactive)
[28]
  GI50: 30.2 µM (inactive)
[29]
  GI50: 69.5 µM (inactive)
[30]
  GI50: 5.26 µM (inactive)
[31]
  GI50: 35.6 µM (inactive)
[32]
  GI50: 56.5 µM (inactive)
[33]
  GI50: 52.2 µM (inactive)
[34]
  GI50: 51.9 µM (inactive)
[35]
  GI50: 9.62 µM (inactive)
[36]
  GI50: 12.3 µM (inactive)
[37]
  GI50: > 100 µM (inactive)
[38]
  GI50: > 100 µM (inactive)
[39]
  GI50: 3.73 µM (inactive)
[40]
  GI50: > 100 µM (inactive)
[41]
  GI50: 25.2 µM (inactive)
[42]
  GI50: 78.9 µM (inactive)
[43]
  GI50: 77.8 µM (inactive)
[44]
  GI50: 9.59 µM (inactive)
[45]
  GI50: > 100 µM (inactive)
[46]
  GI50: 21.1 µM (inactive)
[47]
  GI50: 69.5 µM (inactive)
[48]
  GI50: > 100 µM (inactive)
[49]
  GI50: 19.5 µM
[50]
  GI50: 42.9 µM (inactive)
[51]
  GI50: 17.7 µM (inactive)

## CCOC(=O)/C(=C\NCc1ccc2c(c1)OCO2)c1nc2ccccc2[nH]1
[1]
  GI50: 39.8 µM (inactive)
[2]
  GI50: 43 µM (inactive)
[52]
  GI50: 22.8 µM (inactive)
[3]
  GI50: 25.5 µM (inactive)
[4]
  GI50: 36.9 µM (inactive)
[5]
  GI50: 25.6 µM (inactive)
[6]
  GI50: 56.8 µM (inactive)
[53]
  GI50: 30.5 µM (inactive)
[7]
  GI50: 94.8 µM (inactive)
[8]
  GI50: 43 µM (inactive)
[9]
  GI50: > 100 µM (inactive)
[10]
  GI50: 47.2 µM (inactive)
[11]
  GI50: 46.9 µM (inactive)
[12]
  GI50: 42.7 µM (inactive)
[13]
  GI50: 98.2 µM (inactive)
[14]
  GI50: 77.3 µM (inactive)
[15]
  GI50: > 100 µM (inactive)
[16]
  GI50: 57.3 µM (inactive)
[17]
  GI50: 48.4 µM (inactive)
[18]
  GI50: 61.4 µM (inactive)
[54]
  GI50: > 100 µM (inactive)
[19]
  GI50: 26.9 µM (inactive)
[20]
  GI50: 40.3 µM (inactive)
[21]
  GI50: 83.4 µM (inactive)
[22]
  GI50: > 100 µM (inactive)
[23]
  GI50: > 100 µM (inactive)
[24]
  GI50: 48.8 µM (inactive)
[25]
  GI50: 71.9 µM (inactive)
[26]
  GI50: 42.2 µM (inactive)
[27]
  GI50: 48.6 µM (inactive)
[28]
  GI50: 64.6 µM (inactive)
[29]
  GI50: 42 µM (inactive)
[30]
  GI50: 35.4 µM (inactive)
[55]
  GI50: 82 µM (inactive)
[31]
  GI50: 41.7 µM (inactive)
[32]
  GI50: 60.7 µM (inactive)
[33]
  GI50: 59.8 µM (inactive)
[34]
  GI50: > 100 µM (inactive)
[35]
  GI50: 24.6 µM (inactive)
[36]
  GI50: 48.1 µM (inactive)
[37]
  GI50: 71.3 µM (inactive)
[38]
  GI50: 35.4 µM (inactive)
[56]
  GI50: 52.2 µM (inactive)
[39]
  GI50: 25.8 µM (inactive)
[40]
  GI50: 53.5 µM (inactive)
[41]
  GI50: 28.2 µM (inactive)
[42]
  GI50: 75 µM (inactive)
[43]
  GI50: 50 µM (inactive)
[44]
  GI50: 60.3 µM (inactive)
[45]
  GI50: > 100 µM (inactive)
[46]
  GI50: > 100 µM (inactive)
[47]
  GI50: 35.9 µM (inactive)
[57]
  GI50: 24.9 µM (inactive)
[48]
  GI50: 38.4 µM (inactive)
[49]
  GI50: 44.9 µM
[58]
  GI50: 42.7 µM (inactive)
[50]
  GI50: 79.4 µM (inactive)
[51]
  GI50: 32.7 µM (inactive)

Reference: ChEMBL document CHEMBL1201862, “PubChem BioAssay data set” (2004)
